Laboratory results as given in ChEMBL document CHEMBL5154644, “Design, Synthesis, and Structure-Activity Relationship Optimization of Pyrazolopyrimidine Amide Inhibitors of Phosphoinositide 3-Kinase γ (PI3Kγ)” (J Med Chem, 2022).

What was measured:
CYP3A4 = CYP3A4 (Homo sapiens, UniProt P08684); assay: in vitro; details: human liver microsomes, probe midazolam
Description: Time dependent inhibition of CYP3A4 in human liver microsomes at 10 uM using midazolam as substrate preincubated for 30 mins in presence of NADPH by LC/MS/MS analysis relative to control

[1] = Metabolic stability in human hepatocytes assessed as intrinsic clearance per 10^6 cells at 0.5 uM by LC-MS/MS analysis; type: ADME, cell-based, Hepatocyte; details: read-out: CLH
[2] = Metabolic stability in rat hepatocyte assessed as intrinsic clearance per 10^8 cells at 0.5 uM by LC-MS/MS analysis; type: ADME, cell-based; details: hepatocytes
Homo sapiens [3] = species on record: Homo sapiens; assay: Selectivity ratio of IC50 for inhibition of PI3Kalpha (unknown origin) to IC50 for inhibition of PI3Kgamma (unknown origin)
[4] = target: T1, Phosphatidylinositol 4,5-bisphosphate 3-kinase catalytic subunit delta isoform (Homo sapiens, UniProt O00329); assay: Inhibition of PI3Kdelta (unknown origin) using PIP2 as substrate preincubated for 1 hr followed by substrate addition and measured after 60 mins in presence of ATP by ADP-glo assay
T1 sequence (O00329 whole entry): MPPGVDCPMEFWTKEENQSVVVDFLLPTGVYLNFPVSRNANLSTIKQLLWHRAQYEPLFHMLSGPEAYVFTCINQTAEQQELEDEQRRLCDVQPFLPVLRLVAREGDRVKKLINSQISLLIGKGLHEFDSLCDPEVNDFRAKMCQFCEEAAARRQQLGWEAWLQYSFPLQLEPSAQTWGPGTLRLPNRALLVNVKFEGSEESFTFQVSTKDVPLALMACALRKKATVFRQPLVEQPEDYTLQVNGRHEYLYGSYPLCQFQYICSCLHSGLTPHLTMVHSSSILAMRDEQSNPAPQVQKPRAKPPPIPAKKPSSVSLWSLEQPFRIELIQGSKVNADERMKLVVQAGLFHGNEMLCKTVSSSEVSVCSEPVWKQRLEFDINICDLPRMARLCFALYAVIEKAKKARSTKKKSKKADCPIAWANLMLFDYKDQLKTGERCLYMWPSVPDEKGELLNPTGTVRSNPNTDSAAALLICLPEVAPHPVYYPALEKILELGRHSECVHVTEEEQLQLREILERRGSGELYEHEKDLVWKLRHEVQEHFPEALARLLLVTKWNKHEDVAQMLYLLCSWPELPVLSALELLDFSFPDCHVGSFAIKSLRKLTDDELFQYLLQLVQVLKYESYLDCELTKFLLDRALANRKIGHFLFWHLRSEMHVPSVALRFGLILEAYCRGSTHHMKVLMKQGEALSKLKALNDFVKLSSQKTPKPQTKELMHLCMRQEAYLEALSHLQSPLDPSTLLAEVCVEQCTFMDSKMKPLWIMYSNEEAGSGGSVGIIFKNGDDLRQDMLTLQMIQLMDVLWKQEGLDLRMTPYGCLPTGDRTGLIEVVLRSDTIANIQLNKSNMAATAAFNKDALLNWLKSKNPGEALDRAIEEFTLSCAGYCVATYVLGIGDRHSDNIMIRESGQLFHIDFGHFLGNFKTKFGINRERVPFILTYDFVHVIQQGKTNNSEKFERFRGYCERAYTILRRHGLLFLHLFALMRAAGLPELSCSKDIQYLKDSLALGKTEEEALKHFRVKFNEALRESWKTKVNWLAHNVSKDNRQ

[5] = target: T2, Phosphatidylinositol 4,5-bisphosphate 3-kinase catalytic subunit gamma isoform (Homo sapiens, UniProt P48736); assay: Inhibition of PI3Kgamma (unknown origin) using PIP2 as substrate preincubated for 1 hr followed by substrate addition and measured after 60 mins in presence of ATP by ADP-glo assay
T2 sequence (P48736 whole entry, canonical isoform): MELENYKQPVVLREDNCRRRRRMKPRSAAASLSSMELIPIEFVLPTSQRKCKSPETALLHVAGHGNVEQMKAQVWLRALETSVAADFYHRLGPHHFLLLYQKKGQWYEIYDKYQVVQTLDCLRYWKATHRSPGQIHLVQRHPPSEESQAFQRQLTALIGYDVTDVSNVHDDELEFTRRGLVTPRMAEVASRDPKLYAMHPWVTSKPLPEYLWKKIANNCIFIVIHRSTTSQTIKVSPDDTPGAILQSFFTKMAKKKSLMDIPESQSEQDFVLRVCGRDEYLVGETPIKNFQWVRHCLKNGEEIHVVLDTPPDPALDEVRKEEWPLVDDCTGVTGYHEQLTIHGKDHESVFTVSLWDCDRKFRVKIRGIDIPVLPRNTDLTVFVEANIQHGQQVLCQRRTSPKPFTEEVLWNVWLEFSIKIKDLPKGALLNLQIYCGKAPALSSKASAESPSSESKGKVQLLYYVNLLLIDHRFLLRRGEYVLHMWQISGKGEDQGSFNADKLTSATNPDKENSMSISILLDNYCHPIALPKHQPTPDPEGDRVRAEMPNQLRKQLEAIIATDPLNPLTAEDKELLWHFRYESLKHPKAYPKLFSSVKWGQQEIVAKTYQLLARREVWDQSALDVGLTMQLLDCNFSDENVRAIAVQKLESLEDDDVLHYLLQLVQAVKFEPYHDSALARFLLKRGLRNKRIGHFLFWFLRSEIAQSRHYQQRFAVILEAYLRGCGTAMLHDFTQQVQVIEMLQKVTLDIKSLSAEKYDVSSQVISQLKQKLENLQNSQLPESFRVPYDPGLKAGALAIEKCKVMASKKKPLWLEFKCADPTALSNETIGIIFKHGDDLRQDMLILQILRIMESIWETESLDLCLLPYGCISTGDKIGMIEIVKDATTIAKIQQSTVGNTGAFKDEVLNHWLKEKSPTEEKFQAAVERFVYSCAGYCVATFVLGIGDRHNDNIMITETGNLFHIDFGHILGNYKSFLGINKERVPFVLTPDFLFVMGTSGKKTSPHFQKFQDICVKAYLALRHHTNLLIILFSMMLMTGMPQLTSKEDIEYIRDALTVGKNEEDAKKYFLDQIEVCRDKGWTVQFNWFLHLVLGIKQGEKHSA

Homo sapiens [6] = species on record: Homo sapiens; assay: Selectivity ratio of IC50 for inhibition of PI3Kdelta (unknown origin) to IC50 for inhibition of PI3Kgamma (unknown origin)
[7] = target: Phosphatidylinositol 4,5-bisphosphate 3-kinase catalytic subunit alpha isoform (Homo sapiens, UniProt P42336); assay: Inhibition of PI3Kalpha (unknown origin) using PIP2 as substrate preincubated for 1 hr followed by substrate addition and measured after 60 mins in presence of ATP by ADP-glo assay
Chain of Phosphatidylinositol 4,5-bisphosphate 3-kinase catalytic subunit alpha isoform (P42336 whole entry, canonical isoform): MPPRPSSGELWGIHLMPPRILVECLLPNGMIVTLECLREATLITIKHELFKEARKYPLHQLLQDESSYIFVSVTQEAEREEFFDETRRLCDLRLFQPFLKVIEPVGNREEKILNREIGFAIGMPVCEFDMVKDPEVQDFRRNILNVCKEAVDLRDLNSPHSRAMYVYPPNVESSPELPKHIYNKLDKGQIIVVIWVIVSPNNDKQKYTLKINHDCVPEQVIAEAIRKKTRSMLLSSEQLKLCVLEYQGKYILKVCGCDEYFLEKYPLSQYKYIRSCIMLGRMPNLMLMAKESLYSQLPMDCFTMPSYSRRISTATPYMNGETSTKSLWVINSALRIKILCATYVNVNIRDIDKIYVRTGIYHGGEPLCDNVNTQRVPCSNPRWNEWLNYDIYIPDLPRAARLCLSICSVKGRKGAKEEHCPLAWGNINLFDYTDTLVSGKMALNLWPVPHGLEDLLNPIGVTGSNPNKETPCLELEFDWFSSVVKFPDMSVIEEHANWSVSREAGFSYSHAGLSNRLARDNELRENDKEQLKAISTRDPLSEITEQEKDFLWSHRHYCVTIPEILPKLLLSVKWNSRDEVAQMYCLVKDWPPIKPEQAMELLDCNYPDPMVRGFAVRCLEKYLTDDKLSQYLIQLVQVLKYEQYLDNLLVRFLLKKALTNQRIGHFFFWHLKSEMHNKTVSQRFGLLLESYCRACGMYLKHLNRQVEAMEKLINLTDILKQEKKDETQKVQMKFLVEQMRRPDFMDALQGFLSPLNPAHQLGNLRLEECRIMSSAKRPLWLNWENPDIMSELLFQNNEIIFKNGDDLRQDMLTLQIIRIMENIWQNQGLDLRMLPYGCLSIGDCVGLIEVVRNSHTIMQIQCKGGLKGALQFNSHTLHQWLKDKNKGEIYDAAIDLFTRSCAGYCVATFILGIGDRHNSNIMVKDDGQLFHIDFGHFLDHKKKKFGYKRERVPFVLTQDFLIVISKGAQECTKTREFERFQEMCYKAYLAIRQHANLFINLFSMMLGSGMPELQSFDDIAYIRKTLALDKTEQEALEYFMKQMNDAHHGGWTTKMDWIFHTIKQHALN

[8] = target: T2, Phosphatidylinositol 4,5-bisphosphate 3-kinase catalytic subunit gamma isoform; assay: Inhibition of PI3Kgamma (unknown origin) in […] stimulated human THP-1 cells assessed as reduction in Akt phosphorylation level at Ser473 residue preincubated for 60 mins followed by rhMCP-1 stimulation and measured after 2 mins by AlphaLisa assay; type: cell-based
[9] = Hepatic clearance in Sprague-Dawley rat by LC-MS/MS analysis; type: ADME; details: in vivo

Chain of CYP3A4 (P08684 whole entry): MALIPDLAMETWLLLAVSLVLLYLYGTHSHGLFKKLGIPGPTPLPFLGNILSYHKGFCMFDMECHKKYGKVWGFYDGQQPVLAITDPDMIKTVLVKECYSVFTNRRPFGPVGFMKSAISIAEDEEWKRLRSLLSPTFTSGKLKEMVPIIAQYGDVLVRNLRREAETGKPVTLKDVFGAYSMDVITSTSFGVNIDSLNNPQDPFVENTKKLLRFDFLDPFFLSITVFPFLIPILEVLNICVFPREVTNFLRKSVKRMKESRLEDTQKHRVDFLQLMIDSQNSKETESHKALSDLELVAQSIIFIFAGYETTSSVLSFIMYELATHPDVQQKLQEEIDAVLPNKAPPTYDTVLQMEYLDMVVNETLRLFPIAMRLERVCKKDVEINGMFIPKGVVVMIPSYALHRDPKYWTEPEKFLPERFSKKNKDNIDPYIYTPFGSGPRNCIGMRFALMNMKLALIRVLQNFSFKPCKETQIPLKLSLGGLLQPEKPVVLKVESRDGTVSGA

SMILES | inhibition at 30 min, 10 µM (CYP3A4) [%] | hepatocyte CLint at 0.5 µM [1] [µL/min/1e6 cells] | hepatocyte intrinsic clearance [2] [µL/min] | Ratio IC50 (Homo sapiens [3]) | IC50 [4] [µM] | IC50 [5] [µM] | Ratio IC50 (Homo sapiens [6]) | IC50 [7] [µM] | IC50 [8] [µM] | CLH [9] [L/h/kg]
Cc1cc(-c2ccn3nc(N)c(C(=O)N[C@H]4C[C@H](O)C4)c3n2)cc2c1C(=O)N([C@@H](C)C1CC1)C2 | 14 | 11.3 | 15.7 |  |  |  |  |  |  | 2.4
C[C@@H](C1CC1)N1Cc2cc(-c3ccn4nc(N)c(C(=O)NC5CC5)c4n3)cc(Cl)c2C1=O | 36 | < 1.2 | 2.89 | 282 | 1.43 | 0.0024 | 589 | 0.686 | 0.103 | 
Cc1cc(-c2ccn3nc(N)c(C(=O)N[C@H]4CC[C@@](C)(O)CC4)c3n2)cc2c1C(=O)N([C@@H](C)C1CC1)C2 |  | < 1.2 | 11.6 | > 2090 | > 10 | 0.0048 | > 2090 | > 10 | 0.102 | 2
CC(C)c1cc(-c2ccn3nc(N)c(C(=O)NC4CC4)c3n2)cc2c1C(=O)N([C@@H](C)C1CC1)C2 | 28 | < 1.2 | 2.41 | 220 | 1.48 | 0.0046 | 322 | 1.01 | 0.054 | 
CC(C)S(=O)(=O)c1cc(-c2ccn3nc(N)c(C(=O)NC4CC4)c3n2)cc2c1C(=O)N([C@@H](C)C1CC1)C2 |  | 2.43 | < 1.2 |  | 0.714 |  |  | 0.952 |  | 1.7
COc1cc(-c2ccn3nc(N)c(C(=O)NC4CC4)c3n2)cc2c1C(=O)N([C@@H](C)C1CC1)C2 | 28 | 1.81 | 2.07 | 74 | 0.459 | 0.0038 | 122 | 0.281 | 0.121 | 

Further lines, results first:

inhibition at 30 min, 10 µM (CYP3A4) [%] | hepatocyte CLint at 0.5 µM [1] [µL/min/1e6 cells] | hepatocyte intrinsic clearance [2] [µL/min] | Ratio IC50 (Homo sapiens [3]) | IC50 [4] [µM] | IC50 [5] [µM] | Ratio IC50 (Homo sapiens [6]) | IC50 [7] [µM] | IC50 [8] [µM] | CLH [9] [L/h/kg] | SMILES
16 | 40.4 | 12.6 | 330 | 2.12 | 0.0018 | 907 | 0.602 | 0.071 |  | C[C@@H](C1CC1)N1Cc2cc(-c3ccn4nc(N)c(C(=O)NC5CC5)c4n3)cc(OC(F)F)c2C1=O
 | 8.7 | 22.1 | 82 | 0.155 | 0.003 | 53 | 0.24 | 0.076 | 4.3 | Cc1cc(-c2ccn3nc(N)c(C(=O)N[C@H]4CC[C@](C)(O)CC4)c3n2)cc2c1C(=O)N([C@@H](C)C1CC1)C2
 |  |  |  |  |  |  |  |  | 1.3 | Cc1cc(-c2ccn3nc(N)c(-c4cnn(C)c4)c3n2)cc2c1C(=O)N([C@@H](C)C1CC1)C2
 | 9.35 | 13 | 580 | 0.598 | 0.0018 | 352 | 0.974 | 0.148 | 7.8 | Cc1cc(-c2ccn3nc(N)c(C(=O)N[C@H]4CCOC4)c3n2)cc2c1C(=O)N([C@@H](C)C1CC1)C2
62 | 2.91 | 6.67 |  | 1.31 | 0.0033 | 403 | 2.83 | 0.031 |  | CC[C@H](N1Cc2cc(-c3ccn4nc(N)c(C(=O)NC5CC5)c4n3)cc(NS(C)(=O)=O)c2C1=O)C(F)(F)F
38 | 4.23 | 2.97 | 122 | 0.829 | 0.0047 | 178 | 0.572 | 0.066 |  | C[C@@H](C1CC1)N1Cc2cc(-c3ccn4nc(N)c(C(=O)NC5CC5)c4n3)cc(C3CC3)c2C1=O
